Experimental data reported in article PMC4024065, “Optimization of an Imidazopyridazine Series of Inhibitors of Plasmodium falciparum Calcium-Dependent Protein Kinase 1 (PfCDPK1)” (Journal of Medicinal Chemistry, 2014).
Like-named read-outs stand apart in the source and are kept apart here.

How the values were obtained:
[1] = Figure 1 summary data; cited from earlier work
[2] = Figure 1 summary data; cited from earlier work; remark: listed apart in the source
Pharmacokinetics in rats = type: in vivo; details: rat, hydrochloride salt

Row | Vd (Pharmacokinetics in rats; in vivo, iv 4.5 mg/kg) [L/kg] | half-life (Pharmacokinetics in rats; in vivo, iv 4.5 mg/kg, read-out: iv t1/2 (converted)) [h] | clearance (Pharmacokinetics in rats; plasma, iv 4.5 mg/kg, read-out: plasma Cl) [mL/min/kg] | oral BA (Pharmacokinetics in rats; po 21 mg/kg, iv […]) [%] | clearance (Pharmacokinetics in rats; whole blood, iv 4.5 mg/kg, read-out: blood Cl) [mL/min/kg] | Compound | MLM % rem at 30 min [1] [%] | HLM % rem at 40 min [2] [%]
1 |  |  |  |  |  | CC(C)CCNc1ccc(-c2cnc3ccc(NC4CCN(C)CC4)nn23)cn1 [Compound 1] | 63 | 85
2 | 8 | 4 | 28 | 70 | 14 | CN1CCC(Nc2ccc3ncc(-c4ccc(Nc5ncccc5F)cc4)n3n2)CC1 [Compound 35, 3-{4-[(3-Fluoropyridin-2-yl)amino]phenyl}-N-(1-methylpiperidin-4-yl)imidazo[1,2-b]pyridazin-6-amine] |  | 
